# Measured values: patent publication US8497075B2, “Methods of identifying a modulator that inhibits the binding between Epstein-Barr virus induced receptor 2 and cholesterol derived ligands” (Novartis AG, priority 2008, dated 2013)
# How the values were obtained:
# [1] = test system: bone marrow-derived dendritic cells from EBI2(−/−) mice; assay: chemotaxis assay, EBI2(−/−) dendritic cells; assay type: cell-based, mouse
# Procedure: (§1) B cells (RS11846 or EBV-infected human B-cells) or murine bone marrow-derived dendritic cells were washed once with medium and resuspended at 1×10^6/ml. 100 μl of this suspension was added into the wells of the filter plate and gently placed into the receiver plate containing 150 μl of a given compound dilution. The final DMSO concentration was less then 0.1%. After migration for 3 hr at 37° C. in an incubator, the filter plate was carefully removed from the receiver plate and discarded. The migrated cells in the receiver plate were resuspended and transferred into round-bottom 96-well plate, centrifuged and resuspended in 100 μl PBS containing 2% FCS and 0.1% NaN3 (FACS buffer). The input cells (100 μl) were similarly processed. For the calculation of the specific migration, a fixed number of beads (10000; Invitrogen #PCB100)) in 20 μl FACS buffer was added and the suspension was analyzed by flow cytometry using a FACS instrument PAS™ (Partec). Cells were identified based on their forward scatter (FSC) and side scatter (SSC) pattern. Chemotaxis is expressed either as total cell number or as percent of input cells.
# In order to generate sufficient numbers of dendritic cells (DC) we isolated bone marrow from wild type and EBI2-deficient mice (Deltagen) and treated them in culture for 7-8 days with murine IL4 and murine GM-CSF. […]
# [2] = test system: MAP/ERK signal in parental CHO cell line; assay: Western blot of MAP/ERK phosphorylation, parental CHO cell line without human EBI2; assay type: cell-based, Chinese hamster; conditions: high concentrations
# Procedure: Cells (E2=CHO/AEQ/Gqi5/hEBI2) were seeded at 2×10^5 cell/well in a 12 well plate (TPP #92012) and incubated at 37° C./5% CO2 overnight. The next day medium was removed and cells were starved in serum-free medium for 4 h. Subsequently compound was added for 5 min at RT before cells were lysed (70 ul, 0.5% Triton-X100, 300 mM NaCl, 50 mM Tris pH7.5, Complete™ protease inhibitor cocktail Roche #04693124001). Cell lysates were resolved by gradient SDS-PAGE (NuPage™4-12%, #NP0322Box), transferred by semi-dry blotting to nitrocellulose (Invitrogen, #LC2001) and probed with a phospho p42/44 MAPK (T202/Y204) rabbit mAb (Cell Signalling #4376S). After treatment with a secondary goat anti rabbit-HRP (Pierce #41460) antibody the blots were developed for chemiluminescence (SuperSignal West Dura™, Pierce #34075) and visualized using a BioRad GEL DOC™ imaging system.
# [3] = test system: 26 GPCR binding assays, 9 GPCR functional assays, 40 kinase assays, ion channels, proteases, transporter and enzyme assays; conditions: data not shown
# Source text: So far oxysterols have been noted to have various physiological activities namely regulate the expression of genes that participate in both sterol and fat metabolism, serve as substrates for the synthesis of bile acids, and are intermediates in the transfer of sterols from the periphery to the liver (Russell, D. W. (2000). Oxysterol biosynthetic enzymes. Biochim. Biophys. Acta 1529, 126-135). […] This included binding assays for 26 different GPCRs, functional assays of 9 different GPCRs, 40 kinase assays, as well as selected ion channels, proteases, transporter and enzyme assays.
# RS11846 cells = assay: chemotaxis 96 transwell assay; assay type: cell-based; conditions: 3 hr migration
# Procedure: as §1
# [4] = test system: EBV-infected human B cells; assay: chemotaxis trans well assay; assay type: cell-based; conditions: 3 hr migration
# Procedure: as §1
# Human peripheral B lymphocytes (PBL) were prepared from peripheral blood as a cell suspension by centrifugation on Ficoll plaque. PBL were rinsed in PBS and resuspended in complete RPMI 1640 medium (10% FCS and antibiotics) at the concentration of 2×10^7/cell/ml. […]
compound,measurement,setting,value
"C[C@H](CCCC(C)(C)O)[C@H]1CC[C@H]2[C@@H]3[C@H](O)C=C4C[C@@H](O)CC[C@]4(C)[C@H]3CC[C@]12C [7a,25DHC, cholest-5-ene-3b,7a,25-triol]",migration of DCs from EBI2(−/−) mice towards compound,[1],do not migrate
same,activation of MAP/ERK signal in control cell line,[2],do not activate
same,interaction in safety panel,[3],In none of these assay did we see a significant interaction
same,attraction (migration) of RS11846 cells,RS11846 cells,potently attract
same,attraction (migration) of EBV-infected B cells,[4],potently attract
